Results on one compound are retold here after US9987208B2, “Elastin synthesis/regeneration promoting agent” (NISHIZAKI BIOINFORMATION RESEARCH INSTITUTE, priority 2013, dated 2018).

In test [1] the test system is hippocampus nerve cells. The conditions noted are these: cited from earlier work.
For test [2], the system named is normal human skin fibroblast. The test is described as follows: Immunocytological measurement of elastin fiber in fibroblasts with or without SNP. The conditions noted are these: DCP-LA 100 nM, FIG. 1. Type of test: cell-based. On the procedure:
(§1) Normal human fibroblast was purchased from Lonza (Verviers, Belgium). The cells were cultured in FGM™-2 BulletKit™ (Lonza) at 5% CO2 and 95% air under wet atmosphere at 37° C.
In the presence or absence of DCP-LA (100 nM), normal human skin fibroblasts were treated with sodium nitroprusside (SNP) (1 mM). Then, the cells were fixed with methanol at −20° C. for 30 min, and blocked with 2% (w/v) bovine serum albumin-containing phosphate buffered saline (PBS) at room temperature. The cells were reacted with an anti-elastin antibody (1:100) (Millipore, Temecula, Calif., USA) at 4° C. overnight, and then reacted with an Alexa488-conjugated goat anti-mouse IgG antibody (Molecular Probes, Eugene, Oreg., USA) at room temperature for 1 hr. After staining with 4′,6-diamidino-2-phenylindole (DAPI), the fluorescence-labeled cells were visualized with a confocal scanning laser microscope (Axiovert/LSM510; Carl Zeiss, Oberkochen, Germany). The fluorescence signal intensity of the elastin fiber was analyzed using ImageJ (Bethesda, Md., USA). The intensity of the elastin fiber was standardized by the intensity of DAPI.

Test [3] deals with amyloid β peptide or scopolamine-treated rat. Particulars: cited from earlier work.
The test system of test [4] is senescence accelerated mouse. Particulars: cited from earlier work.
The subject of test [5] is fibrin-5. The experiment in a line: Western blotting of fibrin-5 secreted into culture medium. In kind it is cell-based, human. Particulars: DCP-LA 100 nM, 0-24 hr, FIG. 3. The procedure: as §1
The cultured normal human skin fibroblast was treated with DCP-LA (100 nM) for 0-24 hr, and the culture medium was recovered. After precipitation with 5% (w/v) trichloroacetic acid, protein was separated by sodium dodecyl sulfate-polyacrylamide electrophoresis (SDS-PAGE) using TGX gel (BioRad, Hercules, Calif., USA) and transferred on a polyvinylidene difluoride membrane. The blotting membrane was blocked with TBS-T [150 mM NaCl, 0.1% (v/v) Tween20 and 20 mM Tris, pH 7.5] containing 5% (w/v) BSA, and reacted with anti-fibrin-5 antibody (Sigma, St Louis, Mo., USA). After washing, the membrane was reacted with horseradish peroxidase-conjugated goat anti-rabbit IgG antibody. The immune reactivity was detected by ECL kit (GE Healthcare, Piscataway, N.J., USA), and visualized using a chemiluminescence detection system (GE Healthcare). The protein concentration of each sample was measured using a BCA protein assay kit (Thermo Fisher Scientific, Waltham, Mass., USA).
For orientation: A western blot detects proteins with antibodies after separation by electrophoresis.

In test [6] the target is α7 nicotinic acetylcholine receptor (Homo sapiens, UniProt P36544). The conditions noted are these: α7 nicotinic acetylcholine receptor expressed in glutamatergic presynaptic cell as target; cited from earlier work.
Test [7] has as its system nerve cell. Particulars: cited from earlier work.
The test system of test [8] is HR-1 hairless mice. The experiment in a line: Immunohistological measurement of elastin fiber in UV-irradiated mouse back skin. In kind it is in vivo. Particulars: DCP-LA 1 mg/ml in PEG applied to back skin once per day, UV for 2 weeks, FIG. 2. On the procedure: Male HR-1 hairless mice (7- to 8-week-old) were purchased from Japan SLC. Inc. (Shizuoka, Japan). The mice were reared in a chamber at controlled temperature in a cycle of 12 hr light conditions/12 hr dark conditions.
The mice were transferred to a special cage provided with a UV light on the roof and reared therein. UV light was continuously irradiated on the back skin at a distance of 12 cm for the whole 2 weeks.
During UV irradiation, DCP-LA (1 mg/ml) diluted with polyethylene glycol (PEG) was applied to the skin of the back of the mouse once per day.
The mice were sacrificed, a skin block was mounted on OTC (optimal cutting temperature compound), and cut out in about 10 μm thickness by a cryostat. A section was blocked with 5% (v/v) goat serum in PBS-Triton X-100 for 1 hr. Then, the section was incubated with an anti-elastin mouse monoclonal antibody (1:2000) (Millipore), which is the primary antibody, at 4° C. overnight, and then incubated with a goat anti-mouse IgG antibody (1:500) (Invitrogen, Carlsbad, Calif., USA) which is the secondary antibody, for 1 hr at room temperature. After staining with DAPI, the section was visualized with a confocal scanning laser microscope (Axiovert/LSM510; Carl Zeiss). The fluorescence signal intensity of the elastin fiber was quantified by NIH image. The intensity of the elastin fiber was standardized by the intensity of DAPI.

Test [9] deals with T1, PKC-ε (Homo sapiens, UniProt Q02156).
T1 sequence (Q02156 1-737): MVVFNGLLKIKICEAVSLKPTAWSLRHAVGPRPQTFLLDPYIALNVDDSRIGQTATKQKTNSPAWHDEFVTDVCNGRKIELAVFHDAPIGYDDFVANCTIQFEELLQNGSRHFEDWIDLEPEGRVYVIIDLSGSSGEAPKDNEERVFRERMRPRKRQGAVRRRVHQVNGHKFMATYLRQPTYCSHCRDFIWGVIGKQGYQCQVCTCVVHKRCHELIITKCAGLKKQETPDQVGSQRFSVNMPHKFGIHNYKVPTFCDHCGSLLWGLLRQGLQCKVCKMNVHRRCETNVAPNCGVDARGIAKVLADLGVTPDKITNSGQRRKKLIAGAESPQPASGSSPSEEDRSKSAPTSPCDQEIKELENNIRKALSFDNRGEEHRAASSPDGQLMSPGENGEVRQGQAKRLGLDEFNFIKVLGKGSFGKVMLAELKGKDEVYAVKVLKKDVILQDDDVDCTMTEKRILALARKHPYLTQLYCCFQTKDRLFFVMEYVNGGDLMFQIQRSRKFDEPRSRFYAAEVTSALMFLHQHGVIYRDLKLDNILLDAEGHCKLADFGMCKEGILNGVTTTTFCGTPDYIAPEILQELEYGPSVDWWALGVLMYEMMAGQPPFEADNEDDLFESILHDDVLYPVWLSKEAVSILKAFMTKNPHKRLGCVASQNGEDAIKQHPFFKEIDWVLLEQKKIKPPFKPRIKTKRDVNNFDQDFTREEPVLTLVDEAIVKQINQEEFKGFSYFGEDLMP
Particulars: cited from earlier work.

Chain of α7 nicotinic acetylcholine receptor (P36544 23-502): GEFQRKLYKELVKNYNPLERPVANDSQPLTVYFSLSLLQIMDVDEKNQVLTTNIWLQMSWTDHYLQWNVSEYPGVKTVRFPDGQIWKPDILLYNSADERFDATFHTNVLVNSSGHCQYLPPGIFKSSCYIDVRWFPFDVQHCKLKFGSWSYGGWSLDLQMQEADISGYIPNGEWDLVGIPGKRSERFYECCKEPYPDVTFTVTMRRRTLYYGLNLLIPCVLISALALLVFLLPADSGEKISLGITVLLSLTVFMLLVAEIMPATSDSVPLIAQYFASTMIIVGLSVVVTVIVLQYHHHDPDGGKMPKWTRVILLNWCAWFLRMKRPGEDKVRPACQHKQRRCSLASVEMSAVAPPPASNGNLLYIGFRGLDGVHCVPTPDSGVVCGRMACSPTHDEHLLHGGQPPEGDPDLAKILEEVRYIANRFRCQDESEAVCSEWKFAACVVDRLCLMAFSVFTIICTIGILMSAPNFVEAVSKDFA

`CCCCCC1CC1CC1CC1CCCCCCCC(=O)O` (stereo not shown) [DCP-LA, 8-[2-(2-Pentyl-cyclopropylmethyl)-cyclopropyl]-octanoic acid]: in test [1], the “release of γ aminobutyric acid” value is “increases release of γ aminobutyric acid from hippocampus nerve cells”. In test [2] (SNP 1 mM for 12 hr), the “regeneration against elastin degeneration induced by NO stress (relative density of elastin fiber relative to DAPI)” value was “promote regeneration against elastin degeneration induced by NO stress”. Moreover, in [2] (untreated with SNP), the “elastin synthesis (relative density of elastin fiber relative to the DAPI density)” value is on record as “promote elastin synthesis”. Moreover, the cognitive dysfunction result in [3] is “improves cognitive dysfunction of amyloid β peptide or scopolamine-treated rat”; in [4], “improves cognitive dysfunction of senescence accelerated mouse”. Further, the “secretion amount of fibrin-5” value in test [5] is “increased the secretion amount of fibrin-5”. In [6], the hippocampal synaptic transmission result is “promotes hippocampal synaptic transmission”. Further, the “nerve cell death induced by oxidative stress” value in test [7] is given as “suppress nerve cell death induced by oxidative stress”. For the same compound, in [8], the “protection against elastin disorder caused by UV irradiation (relative density of elastin fiber relative to DAPI)” value is recorded as “protecting action against elastin disorder (elastin deterioration) caused by UV irradiation”. In addition, the PKC-ε activation entry in test [9] was “activates PKC-ε selectively and directly”.
